Assays:
[1] = tested on: soybean; test: Test C pre-/postemergence test; type: in vivo, Glycine max
Procedure, shortened: (§1)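 Seeds were planted and treated preemergence with test chemical in a non-phytotoxic solvent mixture containing surfactant. Postemergence applications of the same formulation went onto plants 2 to 18 cm tall (1- to 4-leaf stage). A dash marks no test result.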

[2] = tested on: downy brome; test: Test C pre-/postemergence test; type: in vivo, Bromus tectorum
Procedure, shortened: as §1

[3] = tested on: crabgrass; test: Test A pre-/postemergence greenhouse test; type: in vivo, Digitaria sanguinalis; settings: for Plant response rating, Crabgrass, Large: 0 to 100 scale where 0 is no effect and 100 is complete control; for Crabgrass, Large plant response rating: 0 to 100 scale
Procedure, shortened: (§2)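 Pots of loam–sand soil sown with the test species are sprayed preemergence on the soil surface; emerged seedlings (1–2 leaves, 2–10 cm) are sprayed postemergence at the same time. The vehicle is a non-phytotoxic solvent mixture with surfactant. Injury is scored visually after ~10 d in greenhouse.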

[4] = tested on: woolly cupgrass; test: Test C pre-/postemergence test; type: in vivo, Eriochloa villosa
Procedure, shortened: as §1

[5] = tested on: cocklebur; test: Test C pre-/postemergence test; type: in vivo, Xanthium strumarium
Procedure, shortened: as §1

[6] = tested on: morningglory; test: Test C pre-/postemergence test; type: in vivo, Ipomoea coccinea
Procedure, shortened: as §1

[7] = tested on: yellow nutsedge; test: Test C pre-/postemergence test; type: in vivo, Cyperus esculentus
Procedure, shortened: as §1

[8] = tested on: umbrella sedge; test: Test C flooded paddy test; type: in vivo, Cyperus difformis; settings: Flood
Procedure, shortened: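 Visual injury ratings against untreated controls, taken 13 to 15 days after compound was added to paddy water standing 3 cm above the soil.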

[9] = tested on: johnsongrass; test: Test C pre-/postemergence test; type: in vivo, Sorghum halepense
Procedure, shortened: as §1

[10] = tested on: lambsquarters; test: Test C pre-/postemergence test; type: in vivo, Chenopodium album
Procedure, shortened: as §1

[11] = tested on: giant foxtail; test: Test C pre-/postemergence test; type: in vivo, Setaria faberii
Procedure, shortened: as §1

[12] = tested on: wheat; test: Test A pre-/postemergence greenhouse test; type: in vivo, Triticum aestivum; settings: for Plant response rating, Wheat: 0 to 100 scale where 0 is no effect and 100 is complete control; for Wheat plant response rating: 0 to 100 scale
Procedure, shortened: as §2

[13] = tested on: common ragweed; test: Test C pre-/postemergence test; type: in vivo, Ambrosia elation
Procedure, shortened: as §1

[14] = tested on: morningglory; test: Test A pre-/postemergence greenhouse test; type: in vivo, Ipomoea spp.; settings: for Plant response rating, Morningglory: 0 to 100 scale where 0 is no effect and 100 is complete control; for Morningglory plant response rating: 0 to 100 scale
Procedure, shortened: as §2

[15] = tested on: Goosegrass; test: Test C pre-/postemergence test; type: in vivo, Eleusin indica
Procedure, shortened: as §1

[16] = tested on: corn; test: Test C pre-/postemergence test; type: in vivo, Zea mays
Procedure, shortened: as §1

[17] = tested on: giant foxtail; test: Test A pre-/postemergence greenhouse test; type: in vivo, Setaria faberi; settings: for Plant response rating, Foxtail, Giant: 0 to 100 scale where 0 is no effect and 100 is complete control; for Foxtail, Giant plant response rating: 0 to 100 scale
Procedure, shortened: as §2

[18] = 62 g ai/ha, Preemergence, scale 0 to 100
[19] = 125 g ai/ha, preemergence, scale 0 (no effect) to 100 (complete control)
[20] = preemergence, 250 g ai/ha, scale 0 (no effect) to 100 (complete control)
[21] = Preemergence, 31 g ai/ha, scale 0 to 100 (0 no effect, 100 complete control)
[22] = Postemergence, 500 g ai/ha, 0 is no effect, 100 is complete control
[23] = Preemergence, 125 g ai/ha, 0 no effect, 100 complete control

## CCc1cc[n+]([O-])c(S(=O)(=O)Cc2c(C(F)(F)F)nn(C)c2OCC(F)(F)F)c1 [Compound 60]
[1]; [18]
  Soybean plant response rating: 50
[1]; [19]
  Soybean plant response rating: 50
[1]; [20]
  Soybean plant response rating: 85
[2]; [18]
  Bromegrass, Downy plant response rating: 55
[2]; [19]
  Bromegrass, Downy plant response rating: 55
[2]; [21]
  Plant response rating, Bromegrass, Downy: 0
[2]; [20]
  Bromegrass, Downy plant response rating: 90
[3]; Postemergence, 125 g ai/ha
  Plant response rating, Crabgrass, Large: 50
[3]; [22]
  Crabgrass, Large plant response rating: 80
[3]; [23]
  Crabgrass, Large plant response rating: 90
[3]; Preemergence, 500 g ai/ha
  Plant response rating, Crabgrass, Large: 100
[4]; [18]
  Cupgrass, Woolly plant response rating: 100
[4]; [19]
  Cupgrass, Woolly plant response rating: 100
[4]; [21]
  Plant response rating, Cupgrass, Woolly: 100
[4]; [20]
  Cupgrass, Woolly plant response rating: 100
[5]; [18]
  Cocklebur plant response rating: 0
[5]; [19]
  Cocklebur plant response rating: 0
[5]; [21]
  Plant response rating, Cocklebur: 0
[5]; [20]
  Cocklebur plant response rating: 0
[6]; [18]
  Morningglory plant response rating: 90
[6]; [19]
  Morningglory plant response rating: 100
[6]; [21]
  Plant response rating, Morningglory: 50
[6]; [20]
  Morningglory plant response rating: 100
[7]; [18]
  Nutsedge, Yellow plant response rating: 50
[7]; [19]
  Nutsedge, Yellow plant response rating: 100
[7]; [21]
  Plant response rating, Nutsedge, Yellow: 20
[7]; [20]
  Nutsedge, Yellow plant response rating: 100
[8]; 62 g ai/ha, scale 0 to 100 (0 no effect, 100 complete control)
  Plant response rating, Sedge, Umbrella: 0
[8]; 250 g ai/ha, scale 0 to 100, 0 no effect, 100 complete control, 13 to 15 days
  Plant response rating, Sedge, Umbrella: 80
[9]; [18]
  Johnsongrass plant response rating: 100
[9]; [19]
  Johnsongrass plant response rating: 100
[9]; [21]
  Plant response rating, Johnsongrass: 100
[9]; [20]
  Johnsongrass plant response rating: 100
[10]; [18]
  Lambsquarters plant response rating: 100
[10]; [19]
  Lambsquarters plant response rating: 100
[10]; [21]
  Plant response rating, Lambsquarters: 100
[10]; [20]
  Lambsquarters plant response rating: 100
[11]; [18]
  Foxtail, Giant plant response rating: 100
[11]; [19]
  Foxtail, Giant plant response rating: 100
[11]; [21]
  Plant response rating, Foxtail, Giant: 100
[11]; [20]
  Foxtail, Giant plant response rating: 100
[12]; Postemergence, 125 g ai/ha
  Plant response rating, Wheat: 50
[12]; [22]
  Wheat plant response rating: 60
[12]; [23]
  Wheat plant response rating: 50
[12]; Preemergence, 500 g ai/ha
  Plant response rating, Wheat: 70
[13]; [18]
  Ragweed plant response rating: 60
[13]; [21]
  Plant response rating, Ragweed: 30
[13]; [20]
  Ragweed plant response rating: 90
[14]; Postemergence, 125 g ai/ha
  Plant response rating, Morningglory: 50
[14]; [22]
  Morningglory plant response rating: 60
[14]; [23]
  Morningglory plant response rating: 70
[14]; Preemergence, 500 g ai/ha
  Plant response rating, Morningglory: 100
[15]; [18]
  Goosegrass plant response rating: 100
[15]; [19]
  Goosegrass plant response rating: 100
[15]; [21]
  Plant response rating, Goosegrass: 100
[15]; [20]
  Goosegrass plant response rating: 100
[16]; [18]
  Corn plant response rating: 20
[16]; [19]
  Corn plant response rating: 55
[16]; [21]
  Plant response rating, Corn: 0
[16]; [20]
  Corn plant response rating: 98
[17]; Postemergence, 125 g ai/ha
  Plant response rating, Foxtail, Giant: 60
[17]; [22]
  Foxtail, Giant plant response rating: 90
[17]; [23]
  Foxtail, Giant plant response rating: 100
[17]; Preemergence, 500 g ai/ha
  Plant response rating, Foxtail, Giant: 100
